In patent US11130769B2 (Prelude Therapeutics Incorporated, priority 2018, dated 2021):
Like-named read-outs stand apart in the source and are kept apart here.

What was measured:
H929 cells = experiment: Cell viability assay (H929 10 FBS); type: cell-based; conditions: read-out: H929_10FBS IC50
Method in brief: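 ATP-based luminescence (CellTiter-Glo or ATPlite 1 Step, 30-60 min at RT) gauged viability of H929 myeloma cells after 24 h compound treatment at 37 °C. Cells plated at 4000 per well in 10% FBS RPMI 1640 supplemented with pyruvate, HEPES and glucose.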

MCL-1 = MCL-1 (Homo sapiens (Human), UniProt Q07820); experiment: Cell free Mcl-1:Bim affinity assay (fluorescence polarization competition); type: binding; conditions: 15 nM MCL-1, 5 nM FITC-Bim, 1 hour at room temperature; class symbols; read-out: BIM_Ki
Chain of MCL-1 (Q07820 whole entry): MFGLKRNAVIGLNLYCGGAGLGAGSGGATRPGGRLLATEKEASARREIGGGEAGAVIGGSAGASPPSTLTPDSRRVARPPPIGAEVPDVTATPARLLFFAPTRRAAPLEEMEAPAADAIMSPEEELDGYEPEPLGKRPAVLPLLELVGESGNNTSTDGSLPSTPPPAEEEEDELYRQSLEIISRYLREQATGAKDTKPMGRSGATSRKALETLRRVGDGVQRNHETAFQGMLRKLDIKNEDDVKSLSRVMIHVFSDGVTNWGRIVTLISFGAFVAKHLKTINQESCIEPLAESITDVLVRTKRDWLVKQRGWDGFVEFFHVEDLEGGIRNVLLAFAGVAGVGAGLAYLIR
Method in brief: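 Fluorescence polarization competition: 10-point 3-fold compound dilutions displaced 5 nM FITC-Bim from 15 nM MCL-1 over 1 h at room temperature. Ki was derived from the fitted IC50 using the Nikolovska-Coleska equation, with percent inhibition normalized to DMSO and positive controls.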

[1] = Homo sapiens, NCI-H929, 24 hours

SMILES | IC50 (H929 cells; [1]) | Ki (MCL-1) | IC50 (H929 cells; 24 hours)
CCN1C/C=C/[C@H](O)[C@@H]2CC[C@H]2CN2C[C@@]3(CCCc4cc(Cl)ccc43)COc3ccc(cc32)S(=O)(=O)NC(=O)C1(C)C [Example 219, (3R,6R,7S,8E,22S)-6′-Chloro-7-hydroxy-11-ethyl-12,12-dimethyl-15,15-dioxo-spiro[20-oxa-15-thia-1,11,14-triazatetracyclo[14.7.2.03,6.019,24]pentacosa-8,16,18,24-tetraene-22,1′-tetralin]-13-one] | < 500 nM | 1 to 100 nM | –
CC1(C)OC/C=C/[C@H](OC(=O)N2CC(F)(F)C2)[C@@H]2CC[C@H]2CN2C[C@@]3(CCCc4cc(Cl)ccc43)COc3ccc(cc32)S(=O)(=O)NC1=O [Example 49, [(3R,6R,7S,8E,22S)-6′-Chloro-12,12-dimethyl-13,15,15-trioxo-spiro[11,20-dioxa-15-thia-1,14-diazatetracyclo[14.7.2.03,6.019,24]pentacosa-8,16,18,24-tetraene-22,1′-tetralin]-7-yl] 3,3-difluoroazetidine-1-carboxylate] | < 500 nM | < 1 nM | –
CN(C)CCO[C@@H]1/C=C/COC(C)(C)C(=O)NS(=O)(=O)c2ccc3c(c2)N(C[C@@H]2CC[C@H]21)C[C@@]1(CCCc2cc(Cl)ccc21)CO3 [Example 273, (3R,6R,7R,8E,22S)-6′-Chloro-7-[2-(dimethylamino)ethoxy]-12,12-dimethyl-15,15-dioxo-spiro[11,20-dioxa-15-thia-1,14-diazatetracyclo[14.7.2.03,6.019,24]pentacosa-8,16,18,24-tetraene-22,1′-tetralin]-13-one] | < 1000 nM | < 1 nM | –
COCCN(C)C(=O)O[C@H]1/C=C/COC(C)(C)C(=O)NS(=O)(=O)c2ccc3c(c2)N(C[C@@H]2CC[C@H]21)C[C@@]1(CCCc2cc(Cl)ccc21)CO3 [Example 159, [(3R,6R,7S,8E,22S)-6′-Chloro-12,12-dimethyl-13,15,15-trioxo-spiro[11,20-dioxa-15-thia-1,14-diazatetracyclo[14.7.2.03,6.019,24]pentacosa-8,16,18,24-tetraene-22,1′-tetralin]-7-yl] N-(2-methoxyethyl)-N-methyl-carbamate] | < 500 nM | < 1 nM | –
CO[C@@H]1/C=C/CN(C)[C@@H](C2CC2)C(=O)NS(=O)(=O)c2ccc3c(c2)N(C[C@@H]2CC[C@H]21)C[C@@]1(CCCc2cc(Cl)ccc21)CO3 [Example 127, (3R,6R,7R,8E,12S,22S)-6′-Chloro-12-cyclopropyl-7-methoxy-11-methyl-15,15-dioxo-spiro[20-oxa-15-thia-1,11,14-triazatetracyclo[14.7.2.0˜3,6.0˜19,24]pentacosa-8,16,18,24-tetraene-22,1′-tetralin]-13-one] | < 1000 nM | 1 to 100 nM | –
CC(C)NC(=O)O[C@H]1/C=C/COC(C)(C)C(=O)NS(=O)(=O)c2ccc3c(c2)N(C[C@@H]2CC[C@H]21)C[C@@]1(CCCc2cc(Cl)ccc21)CO3 [Example 181, [(3R,6R,7S,8E,22S)-6′-Chloro-12,12-dimethyl-13,15,15-trioxo-spiro[11,20-dioxa-15-thia-1,14-diazatetracyclo[14.7.2.03,6.019,24]pentacosa-8,16,18,24-tetraene-22,1′-tetralin]-7-yl] N-isopropylcarbamate] | < 500 nM | < 1 nM | –
CC(C)N1CCN(CC2(O)/C=C/COC(C)(C)C(=O)NS(=O)(=O)c3ccc4c(c3)N(C[C@@H]3CC[C@H]32)C[C@@]2(CCCc3cc(Cl)ccc32)CO4)CC1 (stereo partly drawn) [Example 109, (3R,6R,8E,22S)-6′-Chloro-7-hydroxy-7-[(4-isopropylpiperazin-1-yl)methyl]-12,12-dimethyl-15,15-dioxo-spiro[11,20-dioxa-15-thia-1,14-diazatetracyclo[14.7.2.03,6.019,24]pentacosa-8,16,18,24-tetraene-22,1′-tetralin]-13-one] | > 1000 nM | 1 to 100 nM | –
CN(C(=O)O[C@H]1/C=C/COC(C)(C)C(=O)NS(=O)(=O)c2ccc3c(c2)N(C[C@@H]2CC[C@H]21)C[C@@]1(CCCc2cc(Cl)ccc21)CO3)[C@@H]1CCOC1 [Example 64, [(3R,6R,7S,8E,22S)-6′-Chloro-12,12-dimethyl-13,15,15-trioxo-spiro[11,20-dioxa-15-thia-1,14-diazatetracyclo[14.7.2.03,6.019,24]pentacosa-8,16,18,24-tetraene-22,1′-tetralin]-7-yl] N-methyl-N-[(3R)-tetrahydrofuran-3-yl]carbamate] | < 500 nM | < 1 nM | –
CN1C/C=C/[C@H](OC(=O)N[C@H]2CCOC2)[C@@H]2CC[C@H]2CN2C[C@@]3(CCCc4cc(Cl)ccc43)COc3ccc(cc32)S(=O)(=O)NC(=O)C12CCC2 [Example 295, [(3R,6R,7S,8E,22S)-6′-Chloro-11-methyl-12,12-(1,3-propylene)-13,15,15-trioxo-spiro[20-oxa-15-thia-1,11,14-triazatetracyclo[14.7.2.03,6.019,24]pentacosa-8,16,18,24-tetraene-22,1′-tetralin]-7-yl] N-[(3S)-tetrahydrofuran-3-yl]carbamate] | > 1000 nM | 1 to 100 nM | –
CO[C@@H]1/C=C\CCC2(CC2)C(=O)NS(=O)(=O)c2ccc3c(c2)N(C[C@@H]2CC[C@H]21)C[C@@]1(CCCc2cc(Cl)ccc21)CO3 [Example 70, (3R,6R,7R,8Z,22S)-6′-chloro-7-methoxy-12,12-ethylene-15,15-dioxo-spiro[20-oxa-15-thia-1,14-diazatetracyclo[14.7.2.03,6.019,24]pentacosa[8,16(25),17,19(24)]tetraene-22,1′-tetralin]-13-one] | – | 1 to 100 nM | > 1000 nM
CN(C)[C@@H]1CCN(C(=O)O[C@H]2/C=C/COC(C)(C)C(=O)NS(=O)(=O)c3ccc4c(c3)N(C[C@@H]3CC[C@H]32)C[C@@]2(CCCc3cc(Cl)ccc32)CO4)C1 [Example 53, [(3R,6R,7S,8E,22S)-6′-Chloro-12,12-dimethyl-13,15,15-trioxo-spiro[11,20-dioxa-15-thia-1,14-diazatetracyclo[14.7.2.03,6.019,24]pentacosa-8,16,18,24-tetraene-22,1′-tetralin]-7-yl] (3R)-3-(dimethylamino)pyrrolidine-1-carboxylate] | < 500 nM | < 1 nM | –
CO[C@H]1/C=C/CCC(=O)NS(=O)(=O)c2ccc3c(c2)N(C[C@@H]2CC[C@H]21)C[C@@]1(CCCc2cc(Cl)ccc21)CO3 [Example 75, (3R,6R,7S,8E,21S)-6′-Chloro-7-methoxy-14,14-dioxo-spiro[19-oxa-14-thia-1,13-diazatetracyclo[13.7.2.0˜3,6.0˜18,23]tetracosa-8,15,17,23-tetraene-21,1′-tetralin]-12-one] | > 1000 nM | 1 to 100 nM | –
CO[C@@H]1/C=C/CCC2(CC2)C(=O)NS(=O)(=O)c2ccc3c(c2)N(C[C@@H]2CC[C@H]21)C[C@@]1(CCCc2cc(Cl)ccc21)CO3 [Example 69, (3R,6R,7R,8E,22S)-6′-Chloro-7-methoxy-12,12-ethylene-15,15-dioxo-spiro[[20]oxa[15]thia-1,14-diazatetracyclo[14.7.2.03,6.019,24]pentacosa[8,16(25),17,19(24)]tetraene-22,1′-tetralin]-13-one] | – | 1 to 100 nM | > 1000 nM
CC1(C)OC/C=C/[C@H](OCCN2CC[C@H](F)C2)[C@@H]2CC[C@H]2CN2C[C@@]3(CCCc4cc(Cl)ccc43)COc3ccc(cc32)S(=O)(=O)NC1=O [Example 265, (3R,6R,7S,8E,22S)-6′-Chloro-7-[2-[(3S)-3-fluoropyrrolidin-1-yl]ethoxy]-12,12-dimethyl-15,15-dioxo-spiro[11,20-dioxa-15-thia-1,14-diazatetracyclo[14.7.2.03,6.019,24]pentacosa-8,16,18,24-tetraene-22,1′-tetralin]-13-one] | < 500 nM | 1 to 100 nM | –
CCN1C/C=C/[C@H](OC(=O)N2CCOCC2)[C@@H]2CC[C@H]2CN2C[C@@]3(CCCc4cc(Cl)ccc43)COc3ccc(cc32)S(=O)(=O)NC(=O)C1(C)C [Example 221, [(3R,6R,7S,8E,22S)-6′-Chloro-11-ethyl-12,12-dimethyl-13,15,15-trioxo-spiro[20-oxa-15-thia-1,11,14-triazatetracyclo[14.7.2.03,6.019,24]pentacosa-8,16,18,24-tetraene-22,1′-tetralin]-7-yl]morpholine-4-carboxylate] | < 500 nM | < 1 nM | –
CC1(C)OC/C=C/[C@H](OC(=O)N2CC(O)C2)[C@@H]2CC[C@H]2CN2C[C@@]3(CCCc4cc(Cl)ccc43)COc3ccc(cc32)S(=O)(=O)NC1=O [Example 153] | < 500 nM | < 1 nM | –
CON(C)C(=O)O[C@H]1/C=C/COC(C)(C)C(=O)NS(=O)(=O)c2ccc3c(c2)N(C[C@@H]2CC[C@H]21)C[C@@]1(CCCc2cc(Cl)ccc21)CO3 [Example 63, [(3R,6R,7S,8E,22S)-6′-Chloro-12,12-dimethyl-13,15,15-trioxo-spiro[11,20-dioxa-15-thia-1,14-diazatetracyclo[14.7.2.03,6.019,24]pentacosa-8,16,18,24-tetraene-22,1′-tetralin]-7-yl] N-methoxy-N-methyl-carbamate] | < 500 nM | < 1 nM | –
CCN(CC)CCO[C@H]1/C=C/COC(C)(C)C(=O)NS(=O)(=O)c2ccc3c(c2)N(C[C@@H]2CC[C@H]21)C[C@@]1(CCCc2cc(Cl)ccc21)CO3 [Example 268, (3R,6R,7S,8E,22S)-6′-Chloro-7-[2-(diethylamino)ethoxy]-12,12-dimethyl-15,15-dioxo-spiro[11,20-dioxa-15-thia-1,14-diazatetracyclo[14.7.2.03,6.019,24]pentacosa-8,16,18,24-tetraene-22,1′-tetralin]-13-one] | < 500 nM | < 1 nM | –
